The source of these data is US20230234967A1, “Fused Azole Heterocycles as AHR Antagonists” (Senda Biosciences, Inc., priority 2021, published 2023).

Common to all, as to type: in vitro ADME
The nature of data set [1]: Hepatocyte Stability Assay, human hepatocytes. The conditions noted are these: cryopreserved human hepatocytes, read-out: Human hepatocyte clearance. The procedure: (§1) Example 32: Hepatocyte Stability Assay
(§2) Preparation of working solutions: 10 mM stock solutions of test compound and positive control were prepared in DMSO. In separate conical tubes, the 10 mM solution of test compound and the positive control were diluted to 100 μM by combining 198 μL of 50% acetonitrile/50% water and 2 μL of 10 mM stock.
Preparation of Hepatocytes: Incubation medium (William's E Medium supplemented with GlutaMAX) and hepatocyte thawing medium were placed in a 37° C. water bath and allowed warming for at least 15 minutes prior to use. A vial of cryopreserved hepatocytes was transferred from storage, ensuring that vials remained at cryogenic temperatures until thawing process ensued. Cells were thawed by placing the vial in a 37° C. water bath and gently shaking the vials for 2 minutes. After thawing was completed, vial was sprayed with 70% ethanol and transferred to a biosafety cabinet. Wide-bore pipette tip were used to transfer hepatocytes into 50 mL conical tube containing thawing medium. The 50 mL conical tube were placed into a centrifuge and spun at 100 g for 10 minutes. Upon completion of spin, thawing medium was aspirated and resuspended hepatocytes in enough incubation medium to yield ˜1.5×10^6 cells/mL. Using an AO/PI Staining, cells were counted and the viable cell density was determined. Cells with poor viability (<75% viability) were determined to be not acceptable for use. Cells were diluted with incubation medium to a working cell density of 0.5×10^6 viable cells/mL.
Procedure for Stability Determination: 198 μL of hepatocytes were pipetted into each wells of a 96-well non-coated plate. The plate was placed in the incubator to allow the hepatocytes to warm for 10 minutes. 2 μL of the 100 μM test compound or positive control solutions were pipetted into respective wells of the 96-well non-coated plate to start the reaction. The plate was returned to the incubator for the designed time points. Well contents was transferred in 25 μL aliquots at time points of 0, 15, 30, 60, 90 and 120 minutes. The aliquots were then mixed with 6 volumes (150 μL) of acetonitrile containing internal standard, IS (100 nM alprazolam, 200 nM caffeine and 100 nM tolbutamide) to terminate the reaction. The mixture was vortex for 5 minutes. Samples were centrifuged for 45 minutes at 3,220 g. An aliquot of 100 μL of the supernatant was diluted by 100 μL ultra-pure water, and the mixture was used for LC/MS/MS analysis. All incubations were performed in duplicate.
(§3) Data Analysis: All calculations were carried out using Microsoft Excel. Peak areas were determined from extracted ion chromatograms. In vitro half-life (t1/2) of parent compound was determined by regression analysis of the percent parent disappearance vs. time curve.
The in vitro half-life (in vitro t1/2) was determined from the slope value:
Conversion of the in vitro t1/2 (in min) into the in vitro intrinsic clearance (in vitro CLint, in μL/min/1×10^6 cells) was done using the following equation (mean of duplicate determinations): • in vitro CLint=kV/N • V=incubation volume (0.2 mL); • N=number of hepatocytes per well (0.1×10^6 cells).
“+++” indicates a CLint value less than 20 mL/min/Kg, “++” indicates a CLint between 20 and 50 mL/min/Kg, and “+” indicates an CLint above 50 mL/min/Kg.

Data set [2] in a line: Hepatocyte Stability Assay, mouse hepatocytes. The settings on record: cryopreserved mouse hepatocytes, read-out: Mouse hepatocyte clearance. As to the method:
as §1, §2
(§4) Preparation of Hepatocytes: Incubation medium (William's E Medium supplemented with GlutaMAX) and hepatocyte thawing medium were placed in a 37° C. water bath and allowed warming for at least 15 minutes prior to use. A vial of cryopreserved hepatocytes was transferred from storage, ensuring that vials remained at cryogenic temperatures until thawing process ensued. Cells were thawed by placing the vial in a 37° C. water bath and gently shaking the vials for 2 minutes. […] Using an AO/PI Staining, cells were counted and the viable cell density was determined. Cells with poor viability (<75% viability) were determined to be not acceptable for use. […]
as §3
(§5) The in vitro half-life (in vitro t1/2) was determined from the slope value: […]

A short description of data set [3]: Hepatocyte Stability Assay, rat hepatocytes. The settings on record: cryopreserved rat hepatocytes, read-out: Rat hepatocyte clearance. The procedure: as §1, §2, §4, §3, §5

Molecules are shown by their SMILES.

As for `Cc1ccccc1-c1ccc2nc(NC(=O)c3ccccn3)sc2n1` [Product 8, N-(5-(o-tolyl)thiazolo[5,4-b]pyridin-2-yl)picolinamide], the values for the CLint scaled at 1 µM in data set [1] and in data set [2] were 20 to 50 mL/min/kg and over 50 mL/min/kg, respectively.
For `COc1ccccc1-c1ccc2nc(NC(=O)c3ccccn3)sc2n1` [Product 12, N-(5-(2-methoxyphenyl)thiazolo[5,4-b]pyridin-2-yl)picolinamide], in data set [1], the CLint scaled at 1 µM was in the range of 20 to 50 mL/min/kg.
Take `Cc1ccccc1-c1ccc2nc(NC(=O)c3ccnn3C)sc2n1` [Product 15, 1-Methyl-N-(5-(o-tolyl)thiazolo[5,4-b]pyridin-2-yl)-1H-pyrazole-5-carboxamide]: the results for the CLint scaled at 1 µM in data set [3] and in data set [1] were over 50 mL/min/kg and under 20 mL/min/kg, respectively.
On to `CN(C)c1ccccc1-c1ccc2nc(NC(=O)c3ccnn3C)sc2n1` [Product 18, N-(5-(2-(dimethylamino)phenyl)thiazolo[5,4-b]pyridin-2-yl)-1-methyl-1H-pyrazole-5-carboxamide], for which the CLint scaled at 1 µM in data set [1] was in the range of 20 to 50 mL/min/kg.
As to `COc1ccccc1-c1ccc2nc(NC(=O)c3ccnn3C)sc2n1` [Product 25, N-(5-(2-methoxyphenyl)thiazolo[5,4-b]pyridin-2-yl)-1-methyl-1H-pyrazole-5-carboxamide], the CLint scaled at 1 µM is over 50 mL/min/kg in data set [3], under 20 mL/min/kg in data set [1] and over 50 mL/min/kg in data set [2].
Turning to `Cc1ccccc1-c1ccc2nc(NC(=O)N3CCOCC3)sc2n1` [Product 39, N-(5-(o-tolyl)thiazolo[5,4-b]pyridin-2-yl)morpholine-4-carboxamide], the CLint scaled at 1 µM in data set [1] was under 20 mL/min/kg.
Same read-out and setting: the result for `Cn1ncnc1C(=O)Nc1cnc2cc(-c3cc(F)ccc3C(F)F)[nH]c2c1` [Product 47] reads under 20 mL/min/kg.
